In patent publication US8481555B2, “Aza-bicyclic amine N-oxide compounds as alpha-7 nicotinic acetylcholine receptor ligand pro-drugs” (Bristol-Myers Squibb Company, priority 2010, dated 2013):
Where two headings read alike, the source gives them in different places.

Tests used:
[1] = Conversion of Compound B to Compound A in the rat (intra-duodenal infusion, portal vein sampling); type: in vivo, male Sprague-Dawley rats; conditions: intra-duodenal infusion of Compound B 10 mg/kg, analyte as labelled; for AUC(0-t): 10 mg/kg; for AUC(0-t) / Cmax: fasted, PVC collection, plasma
Experimental: (§1) The following section details the liquid chromatography with tandem mass spectrometry (LC/MS/MS)-based bioanalytical methods developed to support the analysis of the in vivo biological samples (brain, plasma, urine) from studies conducted in the dog and rat.
(§2) Sample Preparation: Blood, Plasma, Serum, Urine. Plasma and blood samples were prepared as described below. If dilutions were required, an aliquot of the sample was diluted into the respective matrix. For the analysis of urine samples, an aliquot was first diluted into blank plasma and then treated as described below.
(§3) Sample preparation was conducted manually or on a Packard MultiPROBE automated liquid handler. The internal standard (IS) solution (1000 nM (S,E)-5-bromo-N-(1′-azaspiro[oxazolidine-5,3′-bicyclo[2.2.2]octane]-2-ylidene)pyrazin-2-amine) was prepared in acetonitrile. Two hundred microliters of the IS solution was added to each well of a Strata protein precipitation filter plate (Phenomenex, Torrance, Calif.). Biological samples (60 μL) were added to the filter plate. The filter plate was attached atop a standard 96 well plate and the entire unit was centrifuged at 1100 rpm for 2 minutes. The supernatant was collected in the 96 well plate. Five microliters of each sample was injected onto the LC/MS/MS system for analysis.
(§4) Instrumentation. The UHPLC system used was an Agilent 1200 series (Agilent Technologies, Wilmington, Del.) coupled with CTC Analytics HTS PAL Auto Sampler (Leap Technologies, Carrboro, N.C.) that was equipped with a cooling stack so that samples were maintained at 10° C. during analysis. The analytical column used was a Waters Acquity HSS T3 (2.1×50 mm, 1.8 um particles) at 60° C. The mobile phase, which consisted of 0.1% formic acid in water (A) and 0.1% formic acid in acetonitrile (B), was delivered at a flow rate of 0.6 mL/min.
(§5) The UHPLC was interfaced to an API4000 QTrap LC/MS/MS System® (AppliedBiosystems/MDS Sciex, Foster City, Calif.) equipped with an electrospray ionization interface operating in the positive ionization mode. The source temperature was 500° C. Detection of each analyte was achieved through selected reaction monitoring. Ions representing the precursor (M+H)^+ species for Compound A, Compound B, and the IS were selected in quadrupole 1 and collisionally dissociated with nitrogen to generate specific product ions, which were subsequently monitored by quadrupole 3.
(§6) Standard Curve Ranges. Unless otherwise specified, the analysis of Compound A and Compound B were conducted against a standard curve ranging from 0.6 to 1,250 nM and 4.8 to 5,000 nM, respectively. The standard curve was fitted with a linear regression weighted by the square of the reciprocal concentration (1/x^2). Standards were analyzed in duplicate. Quality control samples were prepared in blank biological matrix at concentration levels within the range of the standard curve. The predicted concentrations of more than 80% of the QCs from various different matrices were within 20% of nominal values, indicating acceptable assay performance.
Conversion of N-oxide, Compound B, to Compound A in the rat. The conversion of Compound B to Compound A was evaluated in male Sprague-Dawley rats (260-280 g) Animals (N=3 per group) received Compound B as an intra-duodenal infusion (10 mg/kg over 10 minutes) via an indwelling intra-duodenal cannula (IDC) with collection via the intra-portal vein. Serial blood samples were obtained predose and at 0.17, 0.25, 0.5, 0.75, 1, 2, 4, 6, 8, and 24 hours post dose. Plasma samples, obtained by centrifugation at 4° C. (1500-2000×g), were stored at −20° C. until analysis.
All conversion studies in rats were performed in animals containing indwelling cannulas in the duodenum and portal vein. The studies were designed to isolate the role of the GI tract in the reduction of Compound B. Table IV summarizes the exposure of Compound B and Compound A in the portal vein following an intra-duodenal infusion of Compound B in the rat. […]

[2] = Conversion of Compound B to Compound A in the dog (IV infusion and oral gavage, crossover); type: in vivo, male beagle dogs; conditions: for AUC(0-t): analyte as labelled, read-out: AUC(0-24 h)
Experimental: as §1, §2, §3, §4, §5, §6
Conversion of N-oxide, Compound B, to Compound A in the dog. The conversion of Compound B to Compound A was evaluated in a crossover-design study in male beagle dogs. Three animals (5 to 8 kg) received Compound B by IV infusion (1 mg/kg over 5 minutes) via a cephalic vein and by oral gavage (5 mg/kg), with a 1-week washout between treatments. Serial blood samples (˜0.3 mL) were collected from a saphenous vein predose and at (0.083, 0.17 IV only), 0.25, 0.5, 0.75, 1, 2, 4, 6, 8, and 24 hours post dose, followed by centrifugation at 4° C. (1500-2000×g) to obtain plasma. Samples were stored at −20° C. until analysis by LC/MS/MS.
Table VI summarizes the PK parameters of Compound B and the appearance of Compound A following a single dose in dogs. Following either an IV or PO dose, the conversion of Compound B to Compound A was observed; however, it was more extensive after oral dosing. […]

[3] = as above; type: in vivo, male beagle dogs; conditions: plasma
[4] = male, Sprague-Dawley, in vivo, read-out: AUC(0-4)
[5] = male, Sprague-Dawley, in vivo, read-out: Plasma concentration in the portal vein
[6] = fed, IV infusion of Compound B 1 mg/kg, plasma
[7] = male, beagle, fasted, oral gavage of Compound B 5 mg/kg, plasma
[8] = male, beagle, fed, IV infusion of Compound B 1 mg/kg, plasma

Structure (SMILES) | AUC(0-t) [1, 4] [µM·h] | Cmax ([1]; male, Sprague-Dawley, in vivo) [nM] | concentration at 0.167 h [1, 5] [nM] | concentration at 0.25 h [1, 5] [nM] | concentration at 0.5 h [1, 5] [nM] | concentration at 0.75 h [1, 5] [nM] | concentration at 1 h [1, 5] [nM] | concentration at 2 h [1, 5] [nM] | concentration at 4 h [1, 5] [nM] | AUC(0-t) [2, 7] [µM·h] | AUC(0-t) [2, 8] [µM·h] | also measured
[O-][N+]12CCC(CC1)[C@]1(CN=C(Nc3cc4ccccc4cn3)O1)C2 [Compound B, (S)-2-(Isoquinolin-3-ylamino)-4H-1′-azaspiro[oxazole-5,3′-bicyclo[2.2.2]octane]1′-oxide] | 0.34 ± 0.04 | 760 ± 240 | 601 | 758 | 177 | 90 | 69 | 52 | 18 | 5.16 ± 0.68 | 3.84 ± 0.92 | Plasma concentration in the portal vein ([1]; 6 hours): < LLQ; Plasma concentration in the portal vein ([1]; 8 hours): < LLQ; Plasma concentration in the portal vein ([1]; 24 hours): < LLQ; CLTp [2, 6]: 13.7 ± 4.0 mL/min/kg; T-HALF [2, 6]: 9.4 ± 6.5 h; AUC(0-inf) [2, 7]: 5.69 ± 0.39 µM·h; Cmax [2, 7]: 850 ± 460 nM; AUC(0-inf) [2, 8]: 3.94 ± 1.01 µM·h; Vd ([2]; male, beagle, fed, IV infusion of Compound B 1 mg/kg, plasma, read-out: Vss): 2 ± 0.2 L/kg; bioavailability ([2]; male, beagle, plasma, fasted, oral gavage of Compound B 5 mg/kg): 27 ± 15%
c1ccc2cc(NC3=NC[C@@]4(CN5CCC4CC5)O3)ncc2c1 [Compound A, (R)—N-(isoquinolin-3-yl)-4H-1′-azaspiro[oxazole-5,3′-bicyclo[2.2.2]octan]-2-amine] | 1.22 ± 1.1 | 860 ± 340 | 3 | 7 | 112 | 207 | 448 | 750 | 455 | 0.7 ± 0.2 | 0.03 | AUC(0-t) ([1]; male, Sprague-Dawley, in vivo, read-out: AUC(0-24 h)): 2.55 ± 1.93 µM·h; concentration at 6 h ([1]; male, Sprague-Dawley, in vivo, 6 hours, read-out: Plasma concentration in the portal vein): 434 nM; concentration at 8 h ([1]; male, Sprague-Dawley, in vivo, 8 hours, read-out: Plasma concentration in the portal vein): 125 nM; concentration at 24 h ([1]; male, Sprague-Dawley, in vivo, 24 hours, read-out: Plasma concentration in the portal vein): 6 nM; AUC of Compound A after IV Compound B as percent of the AUC of Compound A after IV administration of Compound A ([2]; IV): ~3%; AUC of Compound A after PO Compound B as percent of the oral AUC of Compound A after PO Compound A alone ([2]; PO): roughly 40%; AUC ([3]; male, beagle, PO dosing of Compound B (10 mg/kg as printed in text), read-out: plasma AUC of Compound A after PO dosing of Compound B): 0.7 µM·h; AUC ([3]; PO administration of Compound A alone, read-out: oral AUC of Compound A following PO administration of Compound A alone): 1.74 µM·h
